Assay [1] addresses ROCK1 (Homo sapiens (Human), UniProt Q13464). As to the kind of experiment: ROCK assay (Caliper LABCHIP peptide phosphorylation), ROCK1.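 Note: Read-out is separation of phosphorylated from unphosphorylated peptide, with kinase activity inhibition computed at every concentration of a dose-response series.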 The assay is classed as biochemical. To be noted: 5 μM ATP, 1.5 μM peptide substrate.
For assay [2], the target named is ROCK2 (Homo sapiens (Human), UniProt O75116). Briefly: ROCK assay (Caliper LABCHIP peptide phosphorylation), ROCK2.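 Note: reaction stopped with EDTA, then phosphorylated and unphosphorylated peptide resolved by microfluidic electrophoresis, kinase inhibition computed at each compound concentration in dose-response series, DMSO under 2%.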 Type of assay: biochemical. To be noted: 5 μM ATP, 1.5 μM peptide substrate.
Sequence of ROCK2 (O75116 whole entry, species assumed): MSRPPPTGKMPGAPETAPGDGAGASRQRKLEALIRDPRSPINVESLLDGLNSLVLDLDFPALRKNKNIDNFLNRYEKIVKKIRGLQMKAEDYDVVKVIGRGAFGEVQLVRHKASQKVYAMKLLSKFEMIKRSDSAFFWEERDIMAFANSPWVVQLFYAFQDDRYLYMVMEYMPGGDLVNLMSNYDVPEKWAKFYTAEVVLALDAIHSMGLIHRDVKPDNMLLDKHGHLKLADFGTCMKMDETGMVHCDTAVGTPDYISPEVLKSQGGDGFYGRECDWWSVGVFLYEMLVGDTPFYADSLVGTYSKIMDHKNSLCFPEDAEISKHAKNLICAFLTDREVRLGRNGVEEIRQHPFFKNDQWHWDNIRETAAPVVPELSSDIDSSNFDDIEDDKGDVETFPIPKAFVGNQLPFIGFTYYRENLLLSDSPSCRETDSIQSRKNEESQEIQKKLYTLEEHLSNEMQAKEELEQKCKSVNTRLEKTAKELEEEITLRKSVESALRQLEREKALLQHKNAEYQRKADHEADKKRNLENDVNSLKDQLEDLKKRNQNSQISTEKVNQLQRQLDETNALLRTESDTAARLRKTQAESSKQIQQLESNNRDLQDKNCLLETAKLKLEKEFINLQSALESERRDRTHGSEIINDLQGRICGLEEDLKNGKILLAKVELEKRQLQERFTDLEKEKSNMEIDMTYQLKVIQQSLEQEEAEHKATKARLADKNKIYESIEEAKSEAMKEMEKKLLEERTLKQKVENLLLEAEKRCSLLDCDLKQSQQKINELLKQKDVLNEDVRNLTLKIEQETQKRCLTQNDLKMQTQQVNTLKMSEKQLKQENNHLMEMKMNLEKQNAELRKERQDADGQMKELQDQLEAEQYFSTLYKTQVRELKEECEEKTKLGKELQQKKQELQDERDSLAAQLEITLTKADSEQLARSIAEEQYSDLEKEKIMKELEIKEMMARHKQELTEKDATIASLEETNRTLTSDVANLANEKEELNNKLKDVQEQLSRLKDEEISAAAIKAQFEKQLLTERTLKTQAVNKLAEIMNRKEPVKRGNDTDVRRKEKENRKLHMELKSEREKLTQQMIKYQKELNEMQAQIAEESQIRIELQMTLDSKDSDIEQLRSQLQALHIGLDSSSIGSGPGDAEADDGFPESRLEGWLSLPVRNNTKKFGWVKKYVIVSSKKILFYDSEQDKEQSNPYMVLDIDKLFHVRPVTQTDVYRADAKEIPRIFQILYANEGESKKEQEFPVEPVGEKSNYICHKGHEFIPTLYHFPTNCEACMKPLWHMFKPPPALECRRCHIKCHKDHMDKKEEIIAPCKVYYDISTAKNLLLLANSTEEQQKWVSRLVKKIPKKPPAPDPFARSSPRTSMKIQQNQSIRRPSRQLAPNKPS

Sequence of ROCK1 (Q13464 whole entry, species assumed): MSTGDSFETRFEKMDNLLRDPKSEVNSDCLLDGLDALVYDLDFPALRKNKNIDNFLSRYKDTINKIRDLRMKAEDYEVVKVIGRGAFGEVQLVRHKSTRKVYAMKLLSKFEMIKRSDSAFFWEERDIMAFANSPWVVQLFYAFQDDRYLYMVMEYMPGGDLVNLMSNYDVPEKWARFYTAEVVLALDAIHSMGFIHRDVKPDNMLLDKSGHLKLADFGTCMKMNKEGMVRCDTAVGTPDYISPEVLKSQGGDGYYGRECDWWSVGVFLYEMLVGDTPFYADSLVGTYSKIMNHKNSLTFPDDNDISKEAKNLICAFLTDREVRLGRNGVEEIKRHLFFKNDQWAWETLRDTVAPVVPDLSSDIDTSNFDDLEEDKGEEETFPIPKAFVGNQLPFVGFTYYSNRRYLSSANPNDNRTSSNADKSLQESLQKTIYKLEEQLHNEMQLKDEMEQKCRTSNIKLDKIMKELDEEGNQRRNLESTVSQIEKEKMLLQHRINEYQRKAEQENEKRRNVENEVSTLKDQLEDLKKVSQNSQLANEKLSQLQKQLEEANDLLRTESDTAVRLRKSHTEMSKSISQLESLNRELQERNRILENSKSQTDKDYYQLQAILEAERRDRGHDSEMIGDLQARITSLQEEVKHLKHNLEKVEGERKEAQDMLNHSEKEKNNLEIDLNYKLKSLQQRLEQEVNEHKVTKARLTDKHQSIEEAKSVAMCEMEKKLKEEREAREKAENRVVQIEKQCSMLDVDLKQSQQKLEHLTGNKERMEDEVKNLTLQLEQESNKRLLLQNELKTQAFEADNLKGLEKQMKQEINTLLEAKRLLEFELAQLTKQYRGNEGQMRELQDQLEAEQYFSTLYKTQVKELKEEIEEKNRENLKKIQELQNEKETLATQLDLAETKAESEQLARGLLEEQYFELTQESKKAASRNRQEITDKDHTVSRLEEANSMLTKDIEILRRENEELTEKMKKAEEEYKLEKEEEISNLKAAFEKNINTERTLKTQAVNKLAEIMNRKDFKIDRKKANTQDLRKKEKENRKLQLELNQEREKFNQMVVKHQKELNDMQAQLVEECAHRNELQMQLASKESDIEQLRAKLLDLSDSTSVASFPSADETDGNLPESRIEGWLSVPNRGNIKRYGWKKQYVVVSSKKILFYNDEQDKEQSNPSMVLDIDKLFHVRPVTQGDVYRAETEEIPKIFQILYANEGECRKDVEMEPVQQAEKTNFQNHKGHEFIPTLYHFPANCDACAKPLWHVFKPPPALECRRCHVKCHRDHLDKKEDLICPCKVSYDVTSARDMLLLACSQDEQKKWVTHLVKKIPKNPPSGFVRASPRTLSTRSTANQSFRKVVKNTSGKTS

The IC50 is the concentration needed to halve the response being measured. Read a low IC50 as greater potency in that assay. `COc1cc(-c2cn[nH]c2)ccc1C(=O)N[C@H](CO)c1c(F)cccc1F` [Example 201, N-[(1S)-1-(2,6-difluorophenyl)-2-hydroxyethyl]-2-methoxy-4-(1H-pyrazol-4-yl)benzamide]: the IC50 in assay [1] came out at 362 nM; in assay [2], 11.5 nM.

Turning to `COc1cc(-c2cn[nH]c2)ccc1C(=O)NC(c1ccccc1F)C(C)(C)O` (stereo not drawn) [Example 219, N-[1-(2-fluorophenyl)-2-hydroxy-2-methylpropyl]-2-methoxy-4-(1H-pyrazol-4-yl)benzamide], the results for the IC50 in assay [1] and in assay [2] were 585 nM and 201 nM, respectively.

`COc1cc(C(=O)NCc2csc(-c3ccccc3)n2)ccc1-c1cn[nH]c1` [Example 9, 3-methoxy-N-((2-phenylthiazol-4-yl)methyl)-4-(1H-pyrazol-4-yl)benzamide]: the results for the IC50 in assay [1] and in assay [2] were 155 nM and 61.9 nM, respectively.

In the case of `CC(O)c1cc(C(=O)N[C@H](C)c2ccccc2)ccc1-c1cn[nH]c1` (stereo partly drawn) [Example 273, 3-(1-hydroxyethyl)-N-[(1R)-1-phenylethyl]-4-(1H-pyrazol-4-yl)benzamide], the values for the IC50 in assay [1] and in assay [2] were 50 nM and 7.73 nM, respectively.

Turning to `COc1ccc(F)c(C(C)NC(=O)c2ccc(-c3cn[nH]c3)cc2OC)c1` (stereo not drawn) [Example 229, N-[1-(2-fluoro-5-methoxyphenyl)ethyl]-2-methoxy-4-(1H-pyrazol-4-yl)benzamide], the IC50 in assay [1] was 182 nM; in assay [2] it was 76.3 nM.

As for `COc1ccc(F)c(CNC(=O)c2ccc(-c3cn[nH]c3)c(OC)c2)c1` [Example 49, N-(2-fluoro-5-methoxybenzyl)-3-methoxy-4-(1H-pyrazol-4-yl)benzamide], the IC50 in assay [1] is 14.3 nM; in assay [2] it was 2.47 nM.

On to `COc1cc(C(=O)NC(CCN(C)C)c2ccccc2)ccc1-c1cn[nH]c1` (stereo not drawn) [Example 179, N-[3-(dimethylamino)-1-phenylpropyl]-3-methoxy-4-(1H-pyrazol-4-yl)benzamide], for which the IC50 in assay [1] stood at 1.53 nM; in assay [2] it was 7.75 nM.

On to `COc1cc(C(=O)NCc2ccccc2OC(F)(F)F)ccc1-c1cn[nH]c1` [Example 22, 3-methoxy-4-(1H-pyrazol-4-yl)-N-(2-(trifluoro-methoxy)benzyl) benzamide], for which the values for the IC50 in assay [1] and in assay [2] were 85.8 nM and 60.2 nM, respectively.

Regarding `COc1cc(C(=O)NC(C)(C)c2ccccc2)ccc1-c1cn[nH]c1` [Example 30, 3-methoxy-N-(2-phenylpropan-2-yl)-4-(1H-pyrazol-4-yl)benzamide], the IC50 in assay [1] was determined as 214 nM; in assay [2] it was 129 nM.

As for `COc1cc(C(=O)N[C@H](C)c2ccc3ccccc3c2)ccc1-c1cn[nH]c1` [Example 74, (R)-3-methoxy-N-(1-(naphthalen-2-yl)ethyl)-4-(1H-pyrazol-4-yl)benzamide], the 50% inhibitory concentration (IC50) in assay [1] stood at 36.3 nM; in assay [2] it was 9.18 nM.

With “N-(3- chlorobenzyl)- 3-methoxy-4- (1H-pyrazol-4- yl)benzamide [Example 34]”, the IC50 in assay [1] stood at 124 nM; in assay [2], 49.7 nM.

As for “N-(4- chlorobenzyl)- 3-methoxy-4- (1H-pyrazol-4- yl)benzamide [Example 33]”, the IC50 was found to be 26.5 nM in assay [1] and 4.93 nM in assay [2].

Regarding `COCCOc1cc(-c2cn[nH]c2)ccc1C(=O)N[C@H](C)c1cccc(OC)c1` [Example 314, 2-(2-methoxyethoxy)-N-[(1R)-1-(3-methoxyphenyl)ethyl]-4-(1H-pyrazol-4-yl)benzamide], the IC50 in assay [1] was determined as 16.8 nM; in assay [2] it was 3.37 nM.

Consider `CC[C@@H](NC(=O)c1ccc(-c2cn[nH]c2)c(OC)c1)c1c(F)cccc1F` [Example 264, N-[(1R)-1-(2,6-Difluorophenyl)propyl]-3-methoxy-4-(1H-pyrazol-4-yl)benzamide], for which the results for the IC50 in assay [1] and in assay [2] were 77.3 nM and 23.4 nM, respectively.

Take `COc1cc(C(=O)NCc2ccccc2C(F)(F)F)ccc1-c1cn[nH]c1` [Example 26, 3-methoxy-4-(1H-pyrazol-4-yl)-N-(2-(trifluoromethyl)benzyl)benzamide]: the values for the IC50 in assay [1] and in assay [2] were 20.4 nM and 20.9 nM, respectively.

On to `COc1cc(C(=O)N(C)CCc2ccccc2)ccc1-c1cn[nH]c1` [Example 70, 3-methoxy-N-methyl-N-phenethyl-4-(1H-pyrazol-4-yl)benzamide], for which the IC50 turned out to be 379 nM in assay [1] and 164 nM in assay [2].

Take `COC(=O)c1cc(C(=O)N[C@H](C)c2ccc(F)cc2)ccc1-c1cn[nH]c1` [Example 295, (R)-Methyl 5-((1-(4-fluorophenyl)ethyl)carbamoyl)-2-(1H-pyrazol-4-yl)benzoate]: the results for the IC50 in assay [1] and in assay [2] were 1700 nM and 563 nM, respectively.

On to `Cc1cc(C(=O)NCc2c(F)cccc2Cl)ccc1-c1cn[nH]c1` [Example 151, N-[(2-chloro-6-fluorophenyl)methyl]-3 methyl-4-(1H-pyrazol-4-yl)benzamide], for which the IC50 in assay [1] was found to be 19.7 nM; in assay [2], 9.83 nM.

As for `CC(C)(O)COc1cc(C(=O)N[C@H](CN)c2ccccc2)ccc1-c1cn[nH]c1` [Example 257, N-[(15)-2-amino-1-phenylethyl]-3-(2-hydroxy-2-methylpropoxy)-4-(1H-pyrazol-4-yl)benzamide], the IC50 came out at 85.1 nM in assay [1] and 52.8 nM in assay [2].

Turning to `COc1cc(C(=O)NCc2cc(F)ccc2Cl)ccc1-c1cn[nH]c1` [Example 82, N-(2-chloro-5-fluorobenzyl)-3-methoxy-4-(1H-pyrazol-4-yl)benzamide], the IC50 stood at 9.89 nM in assay [1] and 4.39 nM in assay [2].

Take `COc1cc(C(=O)NCc2cc(F)ccc2F)ccc1-c1cn[nH]c1` [Example 69, N-(2,5-difluorobenzyl)-3-methoxy-4-(1H-pyrazol-4-yl)benzamide]: the IC50 in assay [1] is 18.6 nM; in assay [2], 5.2 nM.

Turning to `COc1cc(C(=O)NCc2c(F)cccc2F)ccc1-c1cn[nH]c1` [Example 98, N-[(2,6-difluorophenyl)methyl]-3-methoxy-4-(1H-pyrazol-4-yl)benzamide], the results for the IC50 in assay [1] and in assay [2] were 17.8 nM and 2.95 nM, respectively.

`Cc1cc(C(=O)N[C@H](CN)c2ccccc2)ccc1-c1cn[nH]c1` [Example 256, N-[(15)-2-amino-1-phenylethyl]-3-methyl-4-(1H-pyrazol-4-yl)benzamide]: the values for the IC50 in assay [1] and in assay [2] were 3.38 nM and 0.72 nM, respectively.

In the case of `COc1cc(C(=O)NC[C@H](O)c2ccccc2)ccc1-c1cn[nH]c1` [Example 130, N-[(2R)-2-hydroxy-2-phenylethyl]-3-methoxy-4-(1H-pyrazol-4-yl)benzamide], the IC50 in assay [1] came to 53.7 nM; in assay [2], 33.4 nM.

As for `NC[C@@H](NC(=O)c1ccc(-c2cn[nH]c2)c(OCCO)c1)c1ccccc1` [Example 258, N-[(15)-2-amino-1-phenylethyl]-3-(2-hydroxyethoxy)-4-(1H-pyrazol-4-yl)benzamide], the values for the IC50 in assay [1] and in assay [2] were 8.92 nM and 3.45 nM, respectively.

With `CC(=O)NC[C@@H](NC(=O)c1ccc(-c2cn[nH]c2)c(C)c1)c1ccccc1` [Example 255, N-[(2S)-2-{[3-Methyl-4-(1H-pyrazol-4-yl)phenyl]formamido}-2-phenylethyl]acetamide], the values for the IC50 in assay [1] and in assay [2] were 97.2 nM and 10.9 nM, respectively.

As for `CC(O)c1cc(C(=O)NCc2c(F)cccc2Cl)ccc1-c1cn[nH]c1` (stereo not drawn) [Example 289, N-[(2-chloro-6-fluorophenyl)methyl]-3-(1-hydroxyethyl)-4-(1H-pyrazol-4-yl)benzamide], the results for the IC50 in assay [1] and in assay [2] were 275 nM and 74.3 nM, respectively.

For the compound `COc1cc(C(=O)NCc2c(F)ccc(F)c2F)ccc1-c1cn[nH]c1` [Example 97, 3-methoxy-4-(1H-pyrazol-4-yl)-N-[(2,3,6-trifluorophenyl)methyl] benzamide], the half-inhibitory concentration (IC50) in assay [1] came to 22.9 nM; in assay [2], 2.46 nM.

For `COc1cc(C(=O)NCc2cccc(S(N)(=O)=O)c2)ccc1-c1cn[nH]c1` [Example 231, 3-methoxy-4-(1H-pyrazol-4-yl)-N-[(3-sulfamoyl-phenyl)methyl] benzamide], the figures for the IC50 in assay [1] and in assay [2] were 15.2 nM and 0.99 nM, respectively.

Consider `O=C(N[C@H](CO)c1ccccc1)c1ccc(-c2cn[nH]c2)c(OC(F)F)c1` [Example 160, 3-(difluoro-methoxy)-N-[(1S)-2-hydroxy-1-phenylethyl]-4-(1H-pyrazol-4-yl)benzamide], for which the figures for the IC50 in assay [1] and in assay [2] were 17.1 nM and 6.94 nM, respectively.

Take `COc1cc(C(=O)N[C@@H](CO)Cc2ccccc2)ccc1-c1cn[nH]c1` [Example 133, N-[(2R)-1-hydroxy-3-phenylpropan-2-yl]-3-methoxy-4-(1H-pyrazol-4-yl)benzamide]: the IC50 in assay [1] stood at 77.9 nM; in assay [2], 34 nM.

For the compound `CCN1CCC[C@H]1CNC(=O)c1cccc(CNC(=O)c2ccc(-c3cn[nH]c3)c(OC)c2)c1` [Example 241, N-{[3-({[(2S)-1-ethylpyrrolidin-2-yl]methyl}carbamoyl)phenyl]methyl}-3-methoxy-4-(1H-pyrazol-4-yl)benzamide], the IC50 stood at 1.54 nM in assay [1] and 0.85 nM in assay [2].

As for `COc1cccc([C@@H](C)NC(=O)c2ccc(-c3cn[nH]c3)cc2Cl)c1` [Example 109, 2-chloro-N-[(1R)-1-(3-methoxyphenyl)ethyl]-4-(1H-pyrazol-4-yl)benzamide], the IC50 was found to be 529 nM in assay [1] and 144 nM in assay [2].

For `COc1cc(-c2cn[nH]c2)ccc1C(=O)N[C@H](CO)Cc1ccccc1` [Example 204, N-[(2S)-1-hydroxy-3-phenylpropan-2-yl]-2-methoxy-4-(1H-pyrazol-4-yl)benzamide], the IC50 in assay [1] was 9.8 nM; in assay [2], 15.2 nM.

Regarding `CC(O)c1cc(C(=O)N[C@H](C)c2ccccc2F)ccc1-c1cn[nH]c1` (stereo partly drawn) [Example 283, N-[(1R)-1-(2-fluorophenyl)ethyl]-3-(1-hydroxyethyl)-4-(1H-pyrazol-4-yl)benzamide], the IC50 in assay [1] stood at 50.6 nM; in assay [2], 5.43 nM.

With `COc1cc(C(=O)NC(CN2CCCC2)c2ccccc2)ccc1-c1cn[nH]c1` (stereo not drawn) [Example 14, 3-methoxy-N-(1-phenyl-2-(pyrrolidin-1-yl)ethyl)-4-(1H-pyrazol-4-yl)benzamide], the IC50 is 243 nM in assay [1] and 86.4 nM in assay [2].

These data come from US9458110B2, “Phenylpyrazole derivatives as potent ROCK1 and ROCK2 inhibitors” (BRISTOL-MYERS SQUIBB COMPANY, priority 2013, dated 2016).
